Each block holds one compound with its values, some of them ahead of it.
Tests used:
[1] = Retention time of the compound in Sprague-Dawley rat bile by UPLC/Q-TOF analysis; type: ADME
[2] = Drug excretion in Sprague-Dawley rat bile treated with ganoderic acid D at 10 mg/kg, po after 12 hrs by UPLC/Q-TOF analysis; type: ADME, organism-based; parameters: dose 10 mg/kg, route oral; details: in vivo
[3] = Drug excretion in Sprague-Dawley rat urine assessed as parent compound at 10 mg/kg, po by UPLC/Q-TOF analysis; type: ADME, organism-based; parameters: dose 10 mg/kg, route oral; details: in vivo
[4] = tested on: Liver microsome; experiment: Drug metabolism in Sprague-Dawley rat liver microsomes assessed as (6R)-6-((5R,7S,10S,13R,14R,17R)-2,7-dihydroxy-4,4,10,13,14-pentamethyl-3,11,15-trioxo-2,3,4,5,6,7,10,11,12,13,14,15,16,17-tetradecahydro-1H-cyclopenta[a]phenanthren-17-yl)-2-methyl-4-oxoheptanoic acid formation at 100 uM after 1 hr by UPLC/Q-TOF analysis; type: ADME
[5] = tested on: Plasma; experiment: Drug level in Sprague-Dawley rat plasma treated with ganoderic acid D at 10 mg/kg, po by UPLC/Q-TOF analysis; type: ADME, organism-based; parameters: dose 10 mg/kg, route oral; details: in vivo
[6] = Drug excretion in Sprague-Dawley rat bile assessed as (6R)-2-hydroxy-6-((5R,7S,10S,13R,14R,17R)-7-hydroxy-4-(hydroxymethyl)-4,10,13,14-tetramethyl-3,11,15-trioxo-2,3,4,5,6,7,10,11,12,13,14,15,16,17-tetradecahydro-1H-cyclopenta[a]phenanthren-17-yl)-2-methyl-4-oxoheptanoic acid level at 10 mg/kg, po after 12 hrs by UPLC/Q-TOF analysis; type: ADME, organism-based; parameters: dose 10 mg/kg, route oral; details: in vivo
[7] = Drug excretion in Sprague-Dawley rat bile assessed as (6R)-6-((5R,7S,10S,13R,14R,17R)-2,7-dihydroxy-4,4,10,13,14-pentamethyl-3,11,15-trioxo-2,3,4,5,6,7,10,11,12,13,14,15,16,17-tetradecahydro-1H-cyclopenta[a]phenanthren-17-yl)-2-(hydroxymethyl)-4-oxoheptanoic acid level at 10 mg/kg, po after 12 hrs by UPLC/Q-TOF analysis; type: ADME, organism-based; parameters: dose 10 mg/kg, route oral; details: in vivo
[8] = Drug excretion in Sprague-Dawley rat bile assessed as (6R)-6-((5R,7S,10S,13R,14R,17R)-2,7-dihydroxy-4,4,10,13,14-pentamethyl-3,11,15-trioxo-2,3,4,5,6,7,10,11,12,13,14,15,16,17-tetradecahydro-1H-cyclopenta[a]phenanthren-17-yl)-2-hydroxy-2-methyl-4-oxoheptanoic acid level at 10 mg/kg, po after 12 hrs by UPLC/Q-TOF analysis; type: ADME, organism-based; parameters: dose 10 mg/kg, route oral; details: in vivo
[9] = tested on: Liver microsome; experiment: Drug metabolism in Sprague-Dawley rat liver microsomes assessed as 3,7(S)-dihydroxy-11,15,23-trioxolanost-8-en-26-oic acid formation at 100 uM after 1 hr by UPLC/Q-TOF analysis; type: ADME
[10] = tested on: Plasma; experiment: Drug level in Sprague-Dawley rat plasma at 10 mg/kg, po by UPLC/Q-TOF analysis; type: ADME, organism-based; parameters: dose 10 mg/kg, route oral; details: in vivo
[11] = Drug excretion in Sprague-Dawley rat bile assessed as (6R)-2-hydroxy-6-((5R,7S,10S,13R,14R,17R)-7-hydroxy-4,4,10,13,14-pentamethyl-3,11,15-trioxo-2,3,4,5,6,7,10,11,12,13,14,15,16,17-tetradecahydro-1H-cyclopenta[a]phenanthren-17-yl)-2-methyl-4-oxoheptanoic acid level at 10 mg/kg, po after 12 hrs by UPLC/Q-TOF analysis; type: ADME, organism-based; parameters: dose 10 mg/kg, route oral; details: in vivo
[12] = Drug excretion in Sprague-Dawley rat bile assessed as 3,7(S)-dihydroxy-11,15,23-trioxolanost-8-en-26-oic acid level at 10 mg/kg, po after 12 hrs by UPLC/Q-TOF analysis; type: ADME, organism-based; parameters: dose 10 mg/kg, route oral; details: in vivo
[13] = tested on: HeLa; experiment: Antiproliferative activity against human HeLa cells assessed as inhibition of cell proliferation after 48 hrs; type: functional, cell-based
[14] = Drug excretion in Sprague-Dawley rat bile assessed as (6R)-6-((5R,7S,10S,13R,14R,17R)-7-hydroxy-4,4,10,13,14-pentamethyl-3,11,15-trioxo-2,3,4,5,6,7,10,11,12,13,14,15,16,17-tetradecahydro-1H-cyclopenta[a]phenanthren-17-yl)-2-(hydroxymethyl)-4-oxoheptanoic acid level at 10 mg/kg, po after 12 hrs by UPLC/Q-TOF analysis; type: ADME, organism-based; parameters: dose 10 mg/kg, route oral; details: in vivo
[15] = Drug excretion in Sprague-Dawley rat urine assessed as metabolite level at 10 mg/kg, po by UPLC/Q-TOF analysis; type: ADME, organism-based; parameters: dose 10 mg/kg, route oral; details: in vivo
[16] = Drug excretion in Sprague-Dawley rat bile assessed as 3,7,11,15,23-pentaoxolanost-8-en-26-oic acid level at 10 mg/kg, po after 12 hrs by UPLC/Q-TOF analysis; type: ADME, organism-based; parameters: dose 10 mg/kg, route oral; details: in vivo
[17] = Drug excretion in Sprague-Dawley rat bile assessed as 7(S) -hydroxy-11,15,23-trioxo-3-sulfooxylanost-8-en-26-oic acid level at 10 mg/kg, po after 12 hrs by UPLC/Q-TOF analysis; type: ADME, organism-based; parameters: dose 10 mg/kg, route oral; details: in vivo
[18] = tested on: Rattus norvegicus; experiment: Drug metabolism in Sprague-Dawley rat plasma assessed as 3,7(S)-dihydroxy-11,15,23-trioxolanost-8-en-26-oic acid level at 10 mg/kg, po by UPLC/Q-TOF analysis; type: ADME, organism-based; parameters: dose 10 mg/kg, route oral; details: in vivo
[19] = Drug excretion in Sprague-Dawley rat bile assessed as (6R)-6-((5R,7S,10S,13R,14R)-3,7-dihydroxy-4,4,10,13,14-pentamethyl-11,15-dioxo-2,3,4,5,6,7,10,11,12,13,14,15-dodecahydro-1H-cyclopenta[a]phenanthren-17-yl)-2-methyl-4-oxoheptanoic acid level at 10 mg/kg, po after 12 hrs by UPLC/Q-TOF analysis; type: ADME, organism-based; parameters: dose 10 mg/kg, route oral; details: in vivo
[20] = Drug excretion in Sprague-Dawley rat bile assessed as (6R)-6-((5R,7S,10S,13R,14R)-7-hydroxy-4-(hydroxymethyl)-4,10,13,14-tetramethyl-3,11,15-trioxo-2,3,4,5,6,7,10,11,12,13,14,15-dodecahydro-1H-cyclopenta[a]phenanthren-17-yl)-2-methyl-4-oxoheptanoic acid level at 10 mg/kg, po after 12 hrs by UPLC/Q-TOF analysis; type: ADME, organism-based; parameters: dose 10 mg/kg, route oral; details: in vivo
[21] = tested on: Liver microsome; experiment: Drug metabolism in Sprague-Dawley rat liver microsomes assessed as (6R)-6-((5R,7S,10S,13R,14R,17R)-2,7-dihydroxy-4-(hydroxymethyl)-4,10,13,14-tetramethyl-3,11,15-trioxo-2,3,4,5,6,7,10,11,12,13,14,15,16,17-tetradecahydro-1H-cyclopenta[a]phenanthren-17-yl)-2-methyl-4-oxoheptanoic acid formation at 100 uM after 1 hr by UPLC/Q-TOF analysis; type: ADME
[22] = Drug excretion in Sprague-Dawley rat bile assessed as (6R)-6-((5R,7S,10S,13R,14R,17R)-2,7-dihydroxy-4-(hydroxymethyl)-4,10,13,14-tetramethyl-3,11,15-trioxo-2,3,4,5,6,7,10,11,12,13,14,15,16,17-tetradecahydro-1H-cyclopenta[a]phenanthren-17-yl)-2-methyl-4-oxoheptanoic acid level at 10 mg/kg, po after 12 hrs by UPLC/Q-TOF analysis; type: ADME, organism-based; parameters: dose 10 mg/kg, route oral; details: in vivo
[23] = Drug excretion in Sprague-Dawley rat bile assessed as (6R)-6-((5R,7S,10S,13R,14R,17R)-2,7-dihydroxy-4-(hydroxymethyl)-4,10,13,14-tetramethyl-3,11,15-trioxo-2,3,4,5,6,7,10,11,12,13,14,15,16,17-tetradecahydro-1H-cyclopenta[a]phenanthren-17-yl)-2-hydroxy-2-methyl-4-oxoheptanoic acid level at 10 mg/kg, po after 12 hrs by UPLC/Q-TOF analysis; type: ADME, organism-based; parameters: dose 10 mg/kg, route oral; details: in vivo
[24] = Drug excretion in Sprague-Dawley rat bile assessed as (6R)-6-((5R,7S,10S,13R,14R,17R)-2,7-dihydroxy-4,4,10,13,14-pentamethyl-3,11,15-trioxo-2,3,4,5,6,7,10,11,12,13,14,15,16,17-tetradecahydro-1H-cyclopenta[a]phenanthren-17-yl)-2-methyl-4-oxoheptanoic acid level at 10 mg/kg, po after 12 hrs by UPLC/Q-TOF analysis; type: ADME, organism-based; parameters: dose 10 mg/kg, route oral; details: in vivo
[25] = tested on: Liver microsome; experiment: Drug level in Sprague-Dawley rat liver microsomes assessed as compound formation treated with ganoderic acid D at 100 uM after 1 hr by UPLC/Q-TOF analysis; type: ADME

SMILES: CC(CC(=O)CC(C)[C@H]1CC(=O)[C@@]2(C)C3=C(C(=O)C[C@]12C)[C@@]1(C)CCC(=O)C(C)(CO)[C@@H]1C[C@@H]3O)C(=O)O (some centres not stated)
Retention_time [1]: 9.2 min | Drug excretion [2]: metabolite_detected

SMILES: CC(CC(=O)CC(C)[C@H]1CC(=O)[C@@]2(C)C3=C(C(=O)C[C@]12C)[C@@]1(C)CCC(=O)C(C)(C)[C@@H]1C[C@@H]3O)C(=O)O (some centres not stated)
Drug excretion [3]: metabolite_not_detected | Retention_time [1]: 11.3 min | Drug metabolism [4]: metabolite_detected | Drug metabolism [5]: metabolite_detected | Drug excretion [6]: metabolite_detected | Drug excretion [7]: metabolite_detected | Drug excretion [8]: metabolite_detected | Drug metabolism [9]: metabolite_detected | Drug uptake [10]: Active | Drug excretion [11]: metabolite_detected | Drug excretion [12]: metabolite_detected | IC50 [13]: 17.3 µM | Drug excretion [14]: metabolite_detected | Drug excretion [15]: metabolite_not_detected | Drug excretion [16]: metabolite_detected | Drug excretion [17]: metabolite_detected | Drug metabolism [18]: metabolite_detected | Drug excretion [19]: metabolite_detected | Drug excretion [20]: metabolite_detected | Drug metabolism [21]: metabolite_detected | Drug excretion [22]: metabolite_detected | Drug excretion [23]: metabolite_detected | Drug excretion [24]: metabolite_detected

SMILES: CC(CC(=O)CC(C)(O)C(=O)O)[C@H]1CC(=O)[C@@]2(C)C3=C(C(=O)C[C@]12C)[C@@]1(C)CCC(=O)C(C)(CO)[C@@H]1C[C@@H]3O (some centres not stated)
Retention_time [1]: 7.5 min | Drug excretion [2]: metabolite_detected

SMILES: CC(CC(=O)CC(C)C1=CC(=O)[C@@]2(C)C3=C(C(=O)C[C@]12C)[C@@]1(C)CCC(=O)C(C)(C)[C@@H]1C[C@@H]3O)C(=O)O (some centres not stated)
Retention_time [1]: 11.9 min | Drug excretion [2]: metabolite_detected

SMILES: CC(CC(=O)CC(C)[C@H]1CC(=O)[C@@]2(C)C3=C(C(=O)C[C@]12C)[C@@]1(C)CCC(O)C(C)(C)[C@@H]1C[C@@H]3O)C(=O)O (some centres not stated)
Retention_time [1]: 9.9 min | Drug excretion [2]: metabolite_detected | Drug metabolism [25]: metabolite_detected

SMILES: CC(CC(=O)CC(C)[C@H]1CC(=O)[C@@]2(C)C3=C(C(=O)C[C@]12C)[C@@]1(C)CCC(=O)C(C)(C)[C@@H]1CC3=O)C(=O)O (some centres not stated)
Retention_time [1]: 11.5 min | Drug excretion [2]: metabolite_detected

SMILES: CC(CC(=O)CC(C)(O)C(=O)O)[C@H]1CC(=O)[C@@]2(C)C3=C(C(=O)C[C@]12C)[C@@]1(C)CC(O)C(=O)C(C)(CO)[C@@H]1C[C@@H]3O (some centres not stated)
Retention_time [1]: 5.9 min | Drug excretion [2]: metabolite_detected

Other lines, results leading:

Retention_time [1]: 10 min | Drug excretion [2]: metabolite_detected
SMILES: CC(CC(=O)CC(C)(O)C(=O)O)[C@H]1CC(=O)[C@@]2(C)C3=C(C(=O)C[C@]12C)[C@@]1(C)CCC(=O)C(C)(C)[C@@H]1C[C@@H]3O (some centres not stated)

Retention_time [1]: 9.8 min | Drug excretion [2]: metabolite_detected
SMILES: CC(CC(=O)CC(CO)C(=O)O)[C@H]1CC(=O)[C@@]2(C)C3=C(C(=O)C[C@]12C)[C@@]1(C)CCC(=O)C(C)(C)[C@@H]1C[C@@H]3O (some centres not stated)

Retention_time [1]: 8 min | Drug excretion [2]: metabolite_detected
SMILES: CC(CC(=O)CC(CO)C(=O)O)[C@H]1CC(=O)[C@@]2(C)C3=C(C(=O)C[C@]12C)[C@@]1(C)CC(O)C(=O)C(C)(C)[C@@H]1C[C@@H]3O (some centres not stated)

Retention_time [1]: 8.2 min | Drug excretion [2]: metabolite_detected
SMILES: CC(CC(=O)CC(C)(O)C(=O)O)[C@H]1CC(=O)[C@@]2(C)C3=C(C(=O)C[C@]12C)[C@@]1(C)CC(O)C(=O)C(C)(C)[C@@H]1C[C@@H]3O (some centres not stated)

Retention_time [1]: 9.5 min | Drug excretion [2]: metabolite_detected | Drug metabolism [25]: metabolite_detected
SMILES: CC(CC(=O)CC(C)[C@H]1CC(=O)[C@@]2(C)C3=C(C(=O)C[C@]12C)[C@@]1(C)CC(O)C(=O)C(C)(C)[C@@H]1C[C@@H]3O)C(=O)O (some centres not stated)

Retention_time [1]: 8.5 min | Drug excretion [2]: metabolite_detected
SMILES: CC(CC(=O)CC(C)[C@H]1CC(=O)[C@@]2(C)C3=C(C(=O)C[C@]12C)[C@@]1(C)CCC(OS(=O)(=O)O)C(C)(C)[C@@H]1C[C@@H]3O)C(=O)O (some centres not stated)

Retention_time [1]: 7.3 min | Drug excretion [2]: metabolite_detected | Drug metabolism [25]: metabolite_detected
SMILES: CC(CC(=O)CC(C)[C@H]1CC(=O)[C@@]2(C)C3=C(C(=O)C[C@]12C)[C@@]1(C)CC(O)C(=O)C(C)(CO)[C@@H]1C[C@@H]3O)C(=O)O (some centres not stated)

— ChEMBL document CHEMBL3526082, “Identification of metabolites of ganoderic acid D by ultra-performance liquid chromatography/quadrupole time-of-flight mass spectrometry” (Drug Metab Dispos, 2012)
